Results published in PubChem BioAssay (NCI).
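The compound was tested at five concentrations on cells cultured in 96-well plates, with a 48-hour exposure period. TGI denotes the concentration required for complete inhibition of growth.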

Legend:
Experiment in all cases: NCI anticancer screen, dose series, 48 h
786-0 renal = test system: 786-0 renal
A498 renal = test system: A498 renal
A549 NSCLC = test system: A549 NSCLC
ACHN renal = test system: ACHN renal
CAKI-1 renal = test system: CAKI-1 renal
CCRF-CEM leukemia = test system: CCRF-CEM leukemia
COLO 205 colon = test system: COLO 205 colon
DLD-1 colon = test system: DLD-1 colon
DMS 114 small cell lung = test system: DMS 114 small cell lung
DMS 273 small cell lung = test system: DMS 273 small cell lung
EKVX NSCLC = test system: EKVX NSCLC
HCC-2998 colon = test system: HCC-2998 colon
HCT-116 colon = test system: HCT-116 colon
HCT-15 colon = test system: HCT-15 colon
HL-60(TB) leukemia = test system: HL-60(TB) leukemia
HOP-18 NSCLC = test system: HOP-18 NSCLC
HOP-62 NSCLC = test system: HOP-62 NSCLC
HOP-92 NSCLC = test system: HOP-92 NSCLC
HT29 colon = test system: HT29 colon
IGROV1 ovarian = test system: IGROV1 ovarian
K-562 leukemia = test system: K-562 leukemia
KM12 colon = test system: KM12 colon
KM20L2 colon = test system: KM20L2 colon
LOX IMVI melanoma = test system: LOX IMVI melanoma
LXFL 529 NSCLC = test system: LXFL 529 NSCLC
M14 melanoma = test system: M14 melanoma
M19-MEL melanoma = test system: M19-MEL melanoma
MALME-3M melanoma = test system: MALME-3M melanoma
MOLT-4 leukemia = test system: MOLT-4 leukemia
NCI-H226 lung = test system: NCI-H226 lung
NCI-H23 lung = test system: NCI-H23 lung
NCI-H460 lung = test system: NCI-H460 lung
NCI-H522 lung = test system: NCI-H522 lung
OVCAR-3 ovarian = test system: OVCAR-3 ovarian
OVCAR-4 ovarian = test system: OVCAR-4 ovarian
OVCAR-5 ovarian = test system: OVCAR-5 ovarian
OVCAR-8 ovarian = test system: OVCAR-8 ovarian
RXF 393 renal = test system: RXF 393 renal
SF-268 CNS = test system: SF-268 CNS
SF-295 CNS = test system: SF-295 CNS
SF-539 CNS = test system: SF-539 CNS
SK-MEL-2 melanoma = test system: SK-MEL-2 melanoma
SK-MEL-28 melanoma = test system: SK-MEL-28 melanoma
SK-MEL-5 melanoma = test system: SK-MEL-5 melanoma
SK-OV-3 ovarian = test system: SK-OV-3 ovarian
SN12C renal = test system: SN12C renal
SNB-19 CNS = test system: SNB-19 CNS
SNB-75 CNS = test system: SNB-75 CNS
SNB-78 CNS = test system: SNB-78 CNS
SW-620 colon = test system: SW-620 colon
TK-10 renal = test system: TK-10 renal
U251 CNS = test system: U251 CNS
UACC-257 melanoma = test system: UACC-257 melanoma
UACC-62 melanoma = test system: UACC-62 melanoma
UO-31 renal = test system: UO-31 renal
XF 498 CNS = test system: XF 498 CNS
RPMI-8226 leukemia = test system: RPMI-8226 leukemia
SR leukemia = test system: SR leukemia

Measured: TGI

N[C@H](C(=O)O)[C@H](Cl)CC(=O)O
> 100 µM: 786-0 renal | A498 renal | A549 NSCLC | ACHN renal | CAKI-1 renal | CCRF-CEM leukemia | COLO 205 colon | DLD-1 colon | DMS 114 small cell lung | DMS 273 small cell lung | EKVX NSCLC | HCC-2998 colon | HCT-116 colon | HCT-15 colon | HL-60(TB) leukemia | HOP-18 NSCLC | HOP-62 NSCLC | HOP-92 NSCLC | HT29 colon | IGROV1 ovarian | K-562 leukemia | KM12 colon | KM20L2 colon | LOX IMVI melanoma | LXFL 529 NSCLC | M14 melanoma | M19-MEL melanoma | MALME-3M melanoma | MOLT-4 leukemia | NCI-H226 lung | NCI-H23 lung | NCI-H460 lung | NCI-H522 lung | OVCAR-3 ovarian | OVCAR-4 ovarian | OVCAR-5 ovarian | OVCAR-8 ovarian | RXF 393 renal | SF-268 CNS | SF-295 CNS | SF-539 CNS | SK-MEL-2 melanoma | SK-MEL-28 melanoma | SK-MEL-5 melanoma | SK-OV-3 ovarian | SN12C renal | SNB-19 CNS | SNB-75 CNS | SNB-78 CNS | SW-620 colon | TK-10 renal | U251 CNS | UACC-257 melanoma | UACC-62 melanoma | UO-31 renal | XF 498 CNS

CN=S(=O)(c1ccccc1)c1ccccc1
> 100 µM: 786-0 renal | A498 renal | A549 NSCLC | ACHN renal | CAKI-1 renal | CCRF-CEM leukemia | COLO 205 colon | DLD-1 colon | DMS 114 small cell lung | DMS 273 small cell lung | EKVX NSCLC | HCC-2998 colon | HCT-116 colon | HCT-15 colon | HL-60(TB) leukemia | HOP-18 NSCLC | HOP-62 NSCLC | HOP-92 NSCLC | HT29 colon | IGROV1 ovarian | K-562 leukemia | KM12 colon | KM20L2 colon | LOX IMVI melanoma | M14 melanoma | M19-MEL melanoma | MALME-3M melanoma | MOLT-4 leukemia | NCI-H226 lung | NCI-H23 lung | NCI-H460 lung | NCI-H522 lung | OVCAR-3 ovarian | OVCAR-4 ovarian | OVCAR-5 ovarian | OVCAR-8 ovarian | RPMI-8226 leukemia | RXF 393 renal | SF-268 CNS | SF-295 CNS | SF-539 CNS | SK-MEL-2 melanoma | SK-MEL-28 melanoma | SK-MEL-5 melanoma | SK-OV-3 ovarian | SN12C renal | SNB-19 CNS | SNB-75 CNS | SNB-78 CNS | SR leukemia | SW-620 colon | TK-10 renal | U251 CNS | UACC-257 melanoma | UACC-62 melanoma | UO-31 renal | XF 498 CNS
